For one experiment, the target named is T1, Interstitial collagenase (Homo sapiens, UniProt P03956).
T1 sequence (P03956 whole entry): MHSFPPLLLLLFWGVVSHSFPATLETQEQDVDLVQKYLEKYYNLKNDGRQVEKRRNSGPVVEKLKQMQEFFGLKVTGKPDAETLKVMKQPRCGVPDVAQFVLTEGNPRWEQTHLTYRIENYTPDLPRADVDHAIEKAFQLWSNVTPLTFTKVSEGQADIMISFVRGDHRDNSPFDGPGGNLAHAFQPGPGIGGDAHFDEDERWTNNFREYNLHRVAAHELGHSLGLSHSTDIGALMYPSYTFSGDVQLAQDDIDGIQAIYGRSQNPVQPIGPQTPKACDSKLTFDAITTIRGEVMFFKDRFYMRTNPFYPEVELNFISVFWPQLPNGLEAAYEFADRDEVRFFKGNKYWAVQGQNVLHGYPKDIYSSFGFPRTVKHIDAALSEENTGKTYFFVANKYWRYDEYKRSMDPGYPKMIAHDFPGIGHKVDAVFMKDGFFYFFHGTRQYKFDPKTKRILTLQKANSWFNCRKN
The experiment can be described thus: Inhibition of Matrix metalloprotease-1.

A further experiment concerns the target T2, Matrilysin (Homo sapiens, UniProt P09237).
T2 sequence (P09237 whole entry): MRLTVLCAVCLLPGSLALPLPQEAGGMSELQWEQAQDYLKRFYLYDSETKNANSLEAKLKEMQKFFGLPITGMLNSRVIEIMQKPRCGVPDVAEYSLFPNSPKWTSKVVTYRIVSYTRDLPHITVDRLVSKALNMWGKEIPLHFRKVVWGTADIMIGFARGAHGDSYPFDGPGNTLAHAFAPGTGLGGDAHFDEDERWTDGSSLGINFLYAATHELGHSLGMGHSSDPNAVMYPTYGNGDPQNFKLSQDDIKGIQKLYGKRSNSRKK
The experiment can be described thus: Inhibition of Matrix metalloprotease-7.

Experiment [1] addresses Matrix metalloproteinase-9 (Homo sapiens, UniProt P14780). Nature of the experiment: Inhibition of Matrix metalloprotease-9.
The target of a further experiment is Stromelysin-1 (Homo sapiens, UniProt P08254). Nature of the experiment: Inhibition of Matrix metalloprotease-3.
Sequence of Stromelysin-1 (P08254 whole entry): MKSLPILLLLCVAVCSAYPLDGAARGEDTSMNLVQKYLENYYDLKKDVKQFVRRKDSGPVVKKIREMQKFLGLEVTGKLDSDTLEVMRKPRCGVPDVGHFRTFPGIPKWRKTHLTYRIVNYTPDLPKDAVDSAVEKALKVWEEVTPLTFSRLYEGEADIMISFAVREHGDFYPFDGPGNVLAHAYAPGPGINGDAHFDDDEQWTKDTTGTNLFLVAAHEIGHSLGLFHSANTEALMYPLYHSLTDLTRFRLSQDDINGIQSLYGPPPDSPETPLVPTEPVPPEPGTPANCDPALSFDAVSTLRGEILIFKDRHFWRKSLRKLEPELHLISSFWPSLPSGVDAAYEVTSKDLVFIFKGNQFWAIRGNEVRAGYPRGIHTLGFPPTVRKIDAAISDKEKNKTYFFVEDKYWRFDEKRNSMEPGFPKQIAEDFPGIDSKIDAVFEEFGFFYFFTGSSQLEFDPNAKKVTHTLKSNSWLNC

Sequence of Matrix metalloproteinase-9 (P14780 whole entry): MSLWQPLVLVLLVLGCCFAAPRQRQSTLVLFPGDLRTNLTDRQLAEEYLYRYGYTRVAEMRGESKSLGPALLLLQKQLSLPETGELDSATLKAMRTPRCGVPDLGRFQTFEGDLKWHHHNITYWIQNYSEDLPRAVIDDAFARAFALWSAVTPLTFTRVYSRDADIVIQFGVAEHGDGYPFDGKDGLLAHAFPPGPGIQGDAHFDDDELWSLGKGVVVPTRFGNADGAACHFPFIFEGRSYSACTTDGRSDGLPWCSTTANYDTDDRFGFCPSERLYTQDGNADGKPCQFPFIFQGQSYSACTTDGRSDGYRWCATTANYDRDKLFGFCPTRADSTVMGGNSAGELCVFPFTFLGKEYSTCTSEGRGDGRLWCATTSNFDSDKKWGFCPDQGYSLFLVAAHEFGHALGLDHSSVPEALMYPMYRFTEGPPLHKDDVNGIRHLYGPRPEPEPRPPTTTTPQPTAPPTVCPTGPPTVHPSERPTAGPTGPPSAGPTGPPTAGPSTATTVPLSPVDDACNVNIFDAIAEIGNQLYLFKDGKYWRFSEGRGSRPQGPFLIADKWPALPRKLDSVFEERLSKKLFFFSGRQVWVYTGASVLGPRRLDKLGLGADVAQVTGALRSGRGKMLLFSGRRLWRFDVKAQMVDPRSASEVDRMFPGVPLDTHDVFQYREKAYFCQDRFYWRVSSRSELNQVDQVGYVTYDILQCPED

The IC50 is the midpoint of a concentration-inhibition curve. For `COc1ccc(S(=O)(=O)N2CC(C)(C)CN(S(=O)(=O)c3ccc(OC)cc3)C2C(=O)NO)cc1`, the IC50 against Interstitial collagenase was 24 nM; on Matrilysin, 30 nM; in experiment [1] it was 2.7 nM.

For `COc1ccc(S(=O)(=O)N2CC(O)CN(S(=O)(=O)c3ccc(OC)cc3)C2C(=O)NO)cc1` (stereo not drawn), the IC50 against Interstitial collagenase was found to be 51 nM; at Stromelysin-1 it was 41 nM; against Matrilysin it was 366 nM; in experiment [1], 4.7 nM.

As to `COc1ccc(S(=O)(=O)N2CC3(CN(S(=O)(=O)c4ccc(OC)cc4)C2C(=O)NO)SCCCS3)cc1`, the IC50 was found to be 79 nM on Interstitial collagenase, 19.5 nM against Stromelysin-1, 123 nM at Matrilysin and 15.6 nM in experiment [1].

On to `COc1ccc(S(=O)(=O)N2CCCCN(S(=O)(=O)c3ccc(OC)cc3)C2C(=O)NO)cc1`, for which the IC50 on Interstitial collagenase turned out to be 827 nM; against Stromelysin-1, 1290 nM.

`COc1ccc(S(=O)(=O)N2CCN(S(=O)(=O)c3ccc(OC)cc3)C2C(=O)NO)cc1`: the IC50 amounted to 4650 nM at Interstitial collagenase and 1060 nM on Stromelysin-1.

As for `COc1ccc(S(=O)(=O)N2CCCN(S(=O)(=O)c3ccc(OC)cc3)C2C(=O)NO)cc1`, the IC50 against Interstitial collagenase was 79 nM; on Stromelysin-1, 33 nM; against Matrilysin it was 460 nM; in experiment [1], 3.9 nM.

Take `CCCCOc1ccc(S(=O)(=O)N2CC(C)(C)CN(S(=O)(=O)c3ccc(OCCCC)cc3)C2C(=O)NO)cc1`: the IC50 against Stromelysin-1 was determined as 22 nM; against Matrilysin it was 716 nM; in experiment [1], 101 nM.

As for `COc1ccc(S(=O)(=O)N(Cc2cccnc2)[C@@H](C(=O)NO)C(C)C)cc1` [CGS-27023A], on Matrilysin, the IC50 worked out at 106 nM.
